Data from patent US8192962B2, “Processes for detecting toxic substances” (Daikin Industries, Ltd., priority 2001, dated 2012).

Tested on: Transport facilitation protein genes
Assay: DNA chip mRNA expression in yeast, transport facilitation protein genes (Table 5)
Assay type: cell-based, Saccharomyces cerevisiae S288C
Procedure, shortened: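 Measured as treated-to-untreated fluorescence ratio on a full-genome yeast DNA chip. Cells (S288C, YPD, 25° C.) were exposed in log phase for two hours to one chemical, dosed to curb growth without killing.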

`CCCCCCCCCCCCc1ccc(S(=O)(=O)[O-])cc1.[Na+]` [(17), sodium dodecylbenzosulfonate] was tested. Which “The level of expressed mRNA in the presence of chemical substance/The level of expressed mRNA in the absence of chemical substance” value (yeast gene YBL030C) did it give?
The value was 1.0.

And the “The level of expressed mRNA in the presence of chemical substance/The level of expressed mRNA in the absence of chemical substance” value (yeast gene YBL099W)?
The value was 0.7.

And the “The level of expressed mRNA in the presence of chemical substance/The level of expressed mRNA in the absence of chemical substance” value (yeast gene YBR052C)?
The value was 1.8.

And the “The level of expressed mRNA in the presence of chemical substance/The level of expressed mRNA in the absence of chemical substance” value (yeast gene YBR068C)?
Its value is 1.1.

And the “The level of expressed mRNA in the presence of chemical substance/The level of expressed mRNA in the absence of chemical substance” value (yeast gene YBR127C)?
Its value is 0.8.

What about the “The level of expressed mRNA in the presence of chemical substance/The level of expressed mRNA in the absence of chemical substance” value (yeast gene YBR132C) of the same molecule?
Its value is 1.1.

And the “The level of expressed mRNA in the presence of chemical substance/The level of expressed mRNA in the absence of chemical substance” value (yeast gene YBR207W)?
Its value is 1.2.

What about the “The level of expressed mRNA in the presence of chemical substance/The level of expressed mRNA in the absence of chemical substance” value (yeast gene YBR293W) of the same molecule?
The value was 1.0.

And the “The level of expressed mRNA in the presence of chemical substance/The level of expressed mRNA in the absence of chemical substance” value (yeast gene YBR294W)?
Its value is 1.0.

What about the “The level of expressed mRNA in the presence of chemical substance/The level of expressed mRNA in the absence of chemical substance” value (yeast gene YBR295W) of the same molecule?
Its value is 1.3.

And the “The level of expressed mRNA in the presence of chemical substance/The level of expressed mRNA in the absence of chemical substance” value (yeast gene YBR298C)?
Its value is 0.9.

And the “The level of expressed mRNA in the presence of chemical substance/The level of expressed mRNA in the absence of chemical substance” value (yeast gene YCL025C)?
Its value is 0.6.

What about the “The level of expressed mRNA in the presence of chemical substance/The level of expressed mRNA in the absence of chemical substance” value (yeast gene YCL038C) of the same molecule?
The value was 1.4.

And the “The level of expressed mRNA in the presence of chemical substance/The level of expressed mRNA in the absence of chemical substance” value (yeast gene YCR024C-A)?
The value was 0.9.

What about the “The level of expressed mRNA in the presence of chemical substance/The level of expressed mRNA in the absence of chemical substance” value (yeast gene YCR037C) of the same molecule?
The value was 1.4.

What about the “The level of expressed mRNA in the presence of chemical substance/The level of expressed mRNA in the absence of chemical substance” value (yeast gene YCR098C) of the same molecule?
Its value is 1.7.

What about the “The level of expressed mRNA in the presence of chemical substance/The level of expressed mRNA in the absence of chemical substance” value (yeast gene YDL128W) of the same molecule?
The value was 0.9.

What about the “The level of expressed mRNA in the presence of chemical substance/The level of expressed mRNA in the absence of chemical substance” value (yeast gene YDL198C) of the same molecule?
Its value is 1.5.

And the “The level of expressed mRNA in the presence of chemical substance/The level of expressed mRNA in the absence of chemical substance” value (yeast gene YDL210W)?
Its value is 1.1.

And the “The level of expressed mRNA in the presence of chemical substance/The level of expressed mRNA in the absence of chemical substance” value (yeast gene YDL245C)?
Its value is 1.0.

And the “The level of expressed mRNA in the presence of chemical substance/The level of expressed mRNA in the absence of chemical substance” value (yeast gene YDR038C)?
The value was 1.3.

What about the “The level of expressed mRNA in the presence of chemical substance/The level of expressed mRNA in the absence of chemical substance” value (yeast gene YDR039C) of the same molecule?
The value was 1.1.

And the “The level of expressed mRNA in the presence of chemical substance/The level of expressed mRNA in the absence of chemical substance” value (yeast gene YDR086C)?
Its value is 1.4.

What about the “The level of expressed mRNA in the presence of chemical substance/The level of expressed mRNA in the absence of chemical substance” value (yeast gene YDR270W) of the same molecule?
The value was 0.9.

And the “The level of expressed mRNA in the presence of chemical substance/The level of expressed mRNA in the absence of chemical substance” value (yeast gene YDR298C)?
Its value is 1.1.

What about the “The level of expressed mRNA in the presence of chemical substance/The level of expressed mRNA in the absence of chemical substance” value (yeast gene YDR342C) of the same molecule?
The value was 1.0.

And the “The level of expressed mRNA in the presence of chemical substance/The level of expressed mRNA in the absence of chemical substance” value (yeast gene YDR343C)?
Its value is 1.1.

What about the “The level of expressed mRNA in the presence of chemical substance/The level of expressed mRNA in the absence of chemical substance” value (yeast gene YDR345C) of the same molecule?
The value was 1.3.

What about the “The level of expressed mRNA in the presence of chemical substance/The level of expressed mRNA in the absence of chemical substance” value (yeast gene YDR387C) of the same molecule?
The value was 1.2.

And the “The level of expressed mRNA in the presence of chemical substance/The level of expressed mRNA in the absence of chemical substance” value (yeast gene YDR497C)?
Its value is 1.6.

And the “The level of expressed mRNA in the presence of chemical substance/The level of expressed mRNA in the absence of chemical substance” value (yeast gene YEL027W)?
The value was 1.0.

What about the “The level of expressed mRNA in the presence of chemical substance/The level of expressed mRNA in the absence of chemical substance” value (yeast gene YEL063C) of the same molecule?
The value was 0.7.

What about the “The level of expressed mRNA in the presence of chemical substance/The level of expressed mRNA in the absence of chemical substance” value (yeast gene YEL065W) of the same molecule?
The value was 0.7.

What about the “The level of expressed mRNA in the presence of chemical substance/The level of expressed mRNA in the absence of chemical substance” value (yeast gene YER053C) of the same molecule?
The value was 1.2.

What about the “The level of expressed mRNA in the presence of chemical substance/The level of expressed mRNA in the absence of chemical substance” value (yeast gene YFL011W) of the same molecule?
Its value is 0.8.

And the “The level of expressed mRNA in the presence of chemical substance/The level of expressed mRNA in the absence of chemical substance” value (yeast gene YFL041W)?
The value was 1.1.

And the “The level of expressed mRNA in the presence of chemical substance/The level of expressed mRNA in the absence of chemical substance” value (yeast gene YFL050C)?
The value was 0.8.

What about the “The level of expressed mRNA in the presence of chemical substance/The level of expressed mRNA in the absence of chemical substance” value (yeast gene YFL054C) of the same molecule?
The value was 1.7.

What about the “The level of expressed mRNA in the presence of chemical substance/The level of expressed mRNA in the absence of chemical substance” value (yeast gene YGL006W) of the same molecule?
Its value is 2.4.

What about the “The level of expressed mRNA in the presence of chemical substance/The level of expressed mRNA in the absence of chemical substance” value (yeast gene YGL008C) of the same molecule?
Its value is 1.1.

And the “The level of expressed mRNA in the presence of chemical substance/The level of expressed mRNA in the absence of chemical substance” value (yeast gene YGL104C)?
Its value is 1.3.

What about the “The level of expressed mRNA in the presence of chemical substance/The level of expressed mRNA in the absence of chemical substance” value (yeast gene YGL167C) of the same molecule?
Its value is 1.4.

And the “The level of expressed mRNA in the presence of chemical substance/The level of expressed mRNA in the absence of chemical substance” value (yeast gene YGL255W)?
Its value is 0.6.

What about the “The level of expressed mRNA in the presence of chemical substance/The level of expressed mRNA in the absence of chemical substance” value (yeast gene YGR055W) of the same molecule?
The value was 0.7.

And the “The level of expressed mRNA in the presence of chemical substance/The level of expressed mRNA in the absence of chemical substance” value (yeast gene YGR065C)?
The value was 0.7.

And the “The level of expressed mRNA in the presence of chemical substance/The level of expressed mRNA in the absence of chemical substance” value (yeast gene YGR082W)?
Its value is 0.9.

And the “The level of expressed mRNA in the presence of chemical substance/The level of expressed mRNA in the absence of chemical substance” value (yeast gene YGR096W)?
The value was 0.8.

What about the “The level of expressed mRNA in the presence of chemical substance/The level of expressed mRNA in the absence of chemical substance” value (yeast gene YGR138C) of the same molecule?
Its value is 0.7.

And the “The level of expressed mRNA in the presence of chemical substance/The level of expressed mRNA in the absence of chemical substance” value (yeast gene YGR191W)?
Its value is 0.8.

And the “The level of expressed mRNA in the presence of chemical substance/The level of expressed mRNA in the absence of chemical substance” value (yeast gene YGR197C)?
The value was 1.7.
